Reference: ChEMBL document CHEMBL5465560, “Selectivity Literature for EUbOPEN Chemogenomic Library” (2024)

Experiments:
[1] = target: Serine/threonine-protein kinase WNK1 (Homo sapiens) (UniProt Q9H4A3); assay: Selectivity interaction (Kinase panel (DSF assay)) EUB0001559a WNK1
[2] = target: Atypical kinase COQ8A, mitochondrial (Homo sapiens, UniProt Q8NI60); settings: at 10 µM
[3] = system: T1, Receptor-type tyrosine-protein kinase FLT3 (Homo sapiens), P36888 [R834Q]; settings: at 10 µM
T1 sequence (whole entry): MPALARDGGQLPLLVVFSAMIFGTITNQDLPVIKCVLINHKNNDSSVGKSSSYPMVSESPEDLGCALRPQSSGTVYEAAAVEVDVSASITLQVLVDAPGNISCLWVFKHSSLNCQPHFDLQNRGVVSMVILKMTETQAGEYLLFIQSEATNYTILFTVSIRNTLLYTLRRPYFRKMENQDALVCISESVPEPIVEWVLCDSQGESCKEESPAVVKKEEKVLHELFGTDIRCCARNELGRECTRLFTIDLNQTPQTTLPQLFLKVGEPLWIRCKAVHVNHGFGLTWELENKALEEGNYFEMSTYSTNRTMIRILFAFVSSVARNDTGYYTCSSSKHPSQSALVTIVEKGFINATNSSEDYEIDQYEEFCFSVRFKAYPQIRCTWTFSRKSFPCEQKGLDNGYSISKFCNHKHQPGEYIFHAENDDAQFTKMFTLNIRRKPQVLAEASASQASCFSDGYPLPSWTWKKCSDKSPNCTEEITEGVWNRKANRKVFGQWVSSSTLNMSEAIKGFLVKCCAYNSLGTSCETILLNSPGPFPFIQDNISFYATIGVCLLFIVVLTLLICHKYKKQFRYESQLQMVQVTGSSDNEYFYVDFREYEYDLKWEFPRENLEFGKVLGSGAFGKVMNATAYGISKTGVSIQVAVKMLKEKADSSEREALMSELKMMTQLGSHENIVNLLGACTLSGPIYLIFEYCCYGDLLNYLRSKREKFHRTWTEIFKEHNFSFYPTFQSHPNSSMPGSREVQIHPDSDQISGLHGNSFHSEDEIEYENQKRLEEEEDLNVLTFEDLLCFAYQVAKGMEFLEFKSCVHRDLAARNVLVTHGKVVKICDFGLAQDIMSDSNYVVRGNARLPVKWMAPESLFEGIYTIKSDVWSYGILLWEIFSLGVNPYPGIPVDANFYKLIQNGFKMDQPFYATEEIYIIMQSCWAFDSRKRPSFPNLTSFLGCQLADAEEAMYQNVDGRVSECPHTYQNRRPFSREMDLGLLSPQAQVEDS

[4] = target: TGF-beta receptor type-2 (Homo sapiens) (UniProt P37173); assay: Selectivity interaction (LanthaScreen Eu Kinase Binding Assay) EUB0001632a TGFBR2; settings: at 10 µM
[5] = target: Calcium/calmodulin-dependent protein kinase type II subunit gamma (Homo sapiens) (UniProt Q13555); assay: Selectivity interaction (ActivX KiNativ screen (kinase selectivity in THP-1 cell lysates)) EUB0000639a CAMK2G; format: subcellular; settings: lysate
[6] = target: Serine/threonine-protein kinase PLK1 (Homo sapiens, UniProt P53350); assay: Selectivity interaction (ActivX KiNativ screen (kinase selectivity in THP-1 cell lysates)) EUB0000639a PLK1; format: subcellular; settings: lysate, at 5 µM
[7] = target: Serine/threonine-protein kinase PLK3 (Homo sapiens, UniProt Q9H4B4); assay: Selectivity interaction (KinomeScan (DiscoverX)) EUB0001049a PLK3; settings: at 1 µM
[8] = target: T2, cAMP-dependent protein kinase catalytic subunit PRKX (Homo sapiens) (UniProt P51817); assay: Selectivity interaction (KinomeScan (DiscoverX)) EUB0000045b PRKX
T2 sequence (whole entry): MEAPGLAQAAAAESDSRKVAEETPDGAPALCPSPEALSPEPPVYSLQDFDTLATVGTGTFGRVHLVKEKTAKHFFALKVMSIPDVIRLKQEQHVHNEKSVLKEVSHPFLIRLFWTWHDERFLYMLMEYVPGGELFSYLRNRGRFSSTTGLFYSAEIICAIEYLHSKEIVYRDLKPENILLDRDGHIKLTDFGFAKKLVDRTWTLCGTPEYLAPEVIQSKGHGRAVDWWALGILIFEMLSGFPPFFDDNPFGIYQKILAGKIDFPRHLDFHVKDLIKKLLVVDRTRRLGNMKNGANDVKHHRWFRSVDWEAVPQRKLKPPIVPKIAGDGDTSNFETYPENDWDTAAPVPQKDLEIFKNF

[9] = target: Myosin light chain kinase, smooth muscle (Homo sapiens, UniProt Q15746); assay: Selectivity interaction (KinomeScan (DiscoverX)) EUB0000618a MYLK; settings: at 10 µM
[10] = target: Androgen receptor (Homo sapiens) (UniProt P10275); assay: Selectivity interaction (Eurofins CEREP Diversity Profile (receptors and ion channels)) EUB0000279b AR; settings: at 10 µM
[11] = target: Serine/threonine-protein kinase 24 (Homo sapiens) (UniProt Q9Y6E0); assay: Selectivity interaction (Ambit KINOMEscan and KiNATiv profiling in Jurkat cells) EUB0000090b STK24; format: cell-based; settings: at 1 µM
[12] = target: T3, Serine/threonine-protein kinase 3 (Homo sapiens) (UniProt Q13188); assay: Selectivity interaction (KinomeScan (DiscoverX)) EUB0001619a STK3; settings: at 1 µM
T3 sequence (whole entry): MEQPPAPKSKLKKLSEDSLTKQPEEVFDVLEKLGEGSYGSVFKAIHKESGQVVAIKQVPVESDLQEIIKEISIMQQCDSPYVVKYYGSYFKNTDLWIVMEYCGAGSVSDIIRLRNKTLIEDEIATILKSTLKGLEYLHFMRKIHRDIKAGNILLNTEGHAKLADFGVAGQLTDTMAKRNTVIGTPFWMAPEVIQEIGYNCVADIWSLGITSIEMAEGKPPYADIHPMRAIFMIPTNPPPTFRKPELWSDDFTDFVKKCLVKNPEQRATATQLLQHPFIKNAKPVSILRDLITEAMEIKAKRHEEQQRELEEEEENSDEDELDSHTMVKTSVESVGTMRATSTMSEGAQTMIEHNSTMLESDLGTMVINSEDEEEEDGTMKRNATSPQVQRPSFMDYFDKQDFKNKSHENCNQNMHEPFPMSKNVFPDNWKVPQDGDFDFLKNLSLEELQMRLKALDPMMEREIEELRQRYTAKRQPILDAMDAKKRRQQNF

Chain of Calcium/calmodulin-dependent protein kinase type II subunit gamma (Homo sapiens) (Q13555 whole entry): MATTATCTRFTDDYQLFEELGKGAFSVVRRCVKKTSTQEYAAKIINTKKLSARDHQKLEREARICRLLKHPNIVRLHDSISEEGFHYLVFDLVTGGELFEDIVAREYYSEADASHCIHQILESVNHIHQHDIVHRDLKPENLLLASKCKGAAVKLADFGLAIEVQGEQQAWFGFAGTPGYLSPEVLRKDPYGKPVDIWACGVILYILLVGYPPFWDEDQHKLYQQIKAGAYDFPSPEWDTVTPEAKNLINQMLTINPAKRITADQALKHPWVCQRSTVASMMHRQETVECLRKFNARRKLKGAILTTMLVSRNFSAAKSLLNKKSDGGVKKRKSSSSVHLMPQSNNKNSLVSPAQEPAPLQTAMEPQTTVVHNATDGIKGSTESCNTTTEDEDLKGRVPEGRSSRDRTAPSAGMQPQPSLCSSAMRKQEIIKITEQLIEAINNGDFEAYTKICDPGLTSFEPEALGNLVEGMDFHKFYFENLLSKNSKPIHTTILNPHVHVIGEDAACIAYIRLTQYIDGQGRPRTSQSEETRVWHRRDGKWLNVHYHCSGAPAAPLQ
Chain of Atypical kinase COQ8A, mitochondrial (Q8NI60 163-647 limits assumed): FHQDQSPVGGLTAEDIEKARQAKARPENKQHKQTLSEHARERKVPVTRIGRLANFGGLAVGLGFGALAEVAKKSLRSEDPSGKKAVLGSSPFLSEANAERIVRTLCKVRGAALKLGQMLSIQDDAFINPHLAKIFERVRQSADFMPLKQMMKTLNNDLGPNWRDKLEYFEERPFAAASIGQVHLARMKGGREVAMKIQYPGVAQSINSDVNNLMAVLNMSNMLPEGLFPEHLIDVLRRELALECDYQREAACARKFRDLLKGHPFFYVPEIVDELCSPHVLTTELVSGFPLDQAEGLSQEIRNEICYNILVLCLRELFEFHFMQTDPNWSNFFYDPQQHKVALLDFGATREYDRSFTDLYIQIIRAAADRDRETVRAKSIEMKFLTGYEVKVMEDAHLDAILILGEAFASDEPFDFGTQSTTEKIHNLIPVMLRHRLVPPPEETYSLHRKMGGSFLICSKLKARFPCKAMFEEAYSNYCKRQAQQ
Chain of TGF-beta receptor type-2 (Homo sapiens) (P37173 whole entry): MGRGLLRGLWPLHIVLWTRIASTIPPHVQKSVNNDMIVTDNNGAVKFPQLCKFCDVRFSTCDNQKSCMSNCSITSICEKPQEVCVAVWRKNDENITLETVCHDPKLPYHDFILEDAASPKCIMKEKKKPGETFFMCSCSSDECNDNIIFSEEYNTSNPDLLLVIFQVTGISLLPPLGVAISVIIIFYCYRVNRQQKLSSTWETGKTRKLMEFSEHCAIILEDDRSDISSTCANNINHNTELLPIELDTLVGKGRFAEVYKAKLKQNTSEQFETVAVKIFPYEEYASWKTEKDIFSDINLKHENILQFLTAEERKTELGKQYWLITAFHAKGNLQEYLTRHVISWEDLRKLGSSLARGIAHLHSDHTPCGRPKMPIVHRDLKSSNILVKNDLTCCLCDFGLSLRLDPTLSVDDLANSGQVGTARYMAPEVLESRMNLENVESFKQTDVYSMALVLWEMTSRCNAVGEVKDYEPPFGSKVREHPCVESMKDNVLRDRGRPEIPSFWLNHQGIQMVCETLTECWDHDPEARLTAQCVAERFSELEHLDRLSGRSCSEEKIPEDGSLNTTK
Chain of Serine/threonine-protein kinase PLK1 (P53350 whole entry): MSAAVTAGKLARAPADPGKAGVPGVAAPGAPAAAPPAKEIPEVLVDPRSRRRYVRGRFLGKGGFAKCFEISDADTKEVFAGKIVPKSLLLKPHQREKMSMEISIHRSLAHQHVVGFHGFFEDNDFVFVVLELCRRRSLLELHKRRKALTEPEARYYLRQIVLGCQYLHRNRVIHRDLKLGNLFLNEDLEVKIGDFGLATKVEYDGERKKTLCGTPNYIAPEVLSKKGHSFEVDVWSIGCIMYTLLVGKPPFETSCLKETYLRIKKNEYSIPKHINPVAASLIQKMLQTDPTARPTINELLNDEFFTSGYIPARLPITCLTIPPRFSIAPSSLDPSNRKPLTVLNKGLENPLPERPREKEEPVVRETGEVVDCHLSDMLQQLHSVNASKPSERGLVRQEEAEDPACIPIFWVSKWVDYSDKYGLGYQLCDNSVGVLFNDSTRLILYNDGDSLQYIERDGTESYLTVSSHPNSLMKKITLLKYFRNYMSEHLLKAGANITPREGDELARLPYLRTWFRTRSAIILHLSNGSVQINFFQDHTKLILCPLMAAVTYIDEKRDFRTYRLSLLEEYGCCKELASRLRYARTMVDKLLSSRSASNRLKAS
Chain of Serine/threonine-protein kinase WNK1 (Homo sapiens) (Q9H4A3 whole entry, looked up): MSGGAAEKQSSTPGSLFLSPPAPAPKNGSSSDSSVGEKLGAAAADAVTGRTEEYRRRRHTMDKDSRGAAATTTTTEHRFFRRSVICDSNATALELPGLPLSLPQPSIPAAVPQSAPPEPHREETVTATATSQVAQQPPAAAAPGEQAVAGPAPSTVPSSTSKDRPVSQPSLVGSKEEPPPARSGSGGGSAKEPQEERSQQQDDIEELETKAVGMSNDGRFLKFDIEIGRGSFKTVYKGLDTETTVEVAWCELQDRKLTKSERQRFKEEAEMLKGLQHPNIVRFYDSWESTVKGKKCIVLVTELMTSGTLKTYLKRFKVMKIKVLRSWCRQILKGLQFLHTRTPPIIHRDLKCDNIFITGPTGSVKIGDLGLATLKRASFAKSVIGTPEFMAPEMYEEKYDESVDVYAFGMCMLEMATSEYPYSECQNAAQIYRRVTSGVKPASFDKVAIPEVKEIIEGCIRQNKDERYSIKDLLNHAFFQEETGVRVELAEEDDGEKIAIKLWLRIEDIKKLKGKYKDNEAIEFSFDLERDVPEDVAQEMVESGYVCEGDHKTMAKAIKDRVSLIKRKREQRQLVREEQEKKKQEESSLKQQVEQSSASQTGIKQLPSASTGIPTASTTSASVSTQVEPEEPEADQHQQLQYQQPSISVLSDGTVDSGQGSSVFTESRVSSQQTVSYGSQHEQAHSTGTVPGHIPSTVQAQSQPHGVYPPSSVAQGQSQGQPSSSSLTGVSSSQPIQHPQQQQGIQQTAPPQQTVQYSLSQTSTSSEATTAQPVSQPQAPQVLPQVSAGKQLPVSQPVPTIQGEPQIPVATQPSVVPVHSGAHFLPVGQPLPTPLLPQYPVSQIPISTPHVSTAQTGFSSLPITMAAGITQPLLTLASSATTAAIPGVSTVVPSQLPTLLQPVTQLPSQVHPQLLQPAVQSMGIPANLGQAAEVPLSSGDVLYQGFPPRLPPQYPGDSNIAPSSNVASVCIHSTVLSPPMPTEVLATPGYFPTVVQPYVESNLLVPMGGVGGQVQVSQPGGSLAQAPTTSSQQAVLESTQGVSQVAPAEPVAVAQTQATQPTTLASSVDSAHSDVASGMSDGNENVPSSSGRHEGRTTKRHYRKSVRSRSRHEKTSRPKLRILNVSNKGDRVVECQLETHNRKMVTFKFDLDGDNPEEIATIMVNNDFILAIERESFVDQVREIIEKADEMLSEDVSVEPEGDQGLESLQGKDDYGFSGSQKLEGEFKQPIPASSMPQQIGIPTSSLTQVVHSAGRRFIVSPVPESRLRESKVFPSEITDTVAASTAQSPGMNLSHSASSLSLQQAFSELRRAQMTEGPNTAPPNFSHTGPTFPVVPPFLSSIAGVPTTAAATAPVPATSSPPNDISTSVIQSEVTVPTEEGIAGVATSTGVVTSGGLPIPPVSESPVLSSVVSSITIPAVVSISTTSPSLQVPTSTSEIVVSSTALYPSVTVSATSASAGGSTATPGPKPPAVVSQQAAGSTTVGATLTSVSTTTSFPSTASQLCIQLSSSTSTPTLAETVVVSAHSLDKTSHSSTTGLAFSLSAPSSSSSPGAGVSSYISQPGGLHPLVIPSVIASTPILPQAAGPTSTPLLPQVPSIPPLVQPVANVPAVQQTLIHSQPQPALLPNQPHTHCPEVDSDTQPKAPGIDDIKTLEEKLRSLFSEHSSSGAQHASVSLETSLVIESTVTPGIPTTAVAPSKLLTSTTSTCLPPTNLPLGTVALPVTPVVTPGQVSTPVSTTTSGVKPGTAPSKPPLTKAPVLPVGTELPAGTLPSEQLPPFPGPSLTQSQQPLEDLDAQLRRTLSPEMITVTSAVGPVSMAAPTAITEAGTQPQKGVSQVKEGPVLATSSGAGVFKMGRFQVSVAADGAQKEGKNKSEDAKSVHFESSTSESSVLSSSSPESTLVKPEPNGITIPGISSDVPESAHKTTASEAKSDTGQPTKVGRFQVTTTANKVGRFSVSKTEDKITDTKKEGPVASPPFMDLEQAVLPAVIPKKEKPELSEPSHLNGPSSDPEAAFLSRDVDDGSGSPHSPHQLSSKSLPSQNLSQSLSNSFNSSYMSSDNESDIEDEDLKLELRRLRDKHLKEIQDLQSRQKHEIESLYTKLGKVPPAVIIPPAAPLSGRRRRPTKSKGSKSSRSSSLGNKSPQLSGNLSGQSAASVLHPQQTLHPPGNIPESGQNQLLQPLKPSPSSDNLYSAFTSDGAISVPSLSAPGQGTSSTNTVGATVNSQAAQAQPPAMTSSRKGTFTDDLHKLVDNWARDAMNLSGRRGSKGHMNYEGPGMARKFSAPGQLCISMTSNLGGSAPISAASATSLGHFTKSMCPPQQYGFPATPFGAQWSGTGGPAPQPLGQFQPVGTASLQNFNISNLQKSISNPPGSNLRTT
Chain of Serine/threonine-protein kinase 24 (Homo sapiens) (Q9Y6E0 whole entry, looked up): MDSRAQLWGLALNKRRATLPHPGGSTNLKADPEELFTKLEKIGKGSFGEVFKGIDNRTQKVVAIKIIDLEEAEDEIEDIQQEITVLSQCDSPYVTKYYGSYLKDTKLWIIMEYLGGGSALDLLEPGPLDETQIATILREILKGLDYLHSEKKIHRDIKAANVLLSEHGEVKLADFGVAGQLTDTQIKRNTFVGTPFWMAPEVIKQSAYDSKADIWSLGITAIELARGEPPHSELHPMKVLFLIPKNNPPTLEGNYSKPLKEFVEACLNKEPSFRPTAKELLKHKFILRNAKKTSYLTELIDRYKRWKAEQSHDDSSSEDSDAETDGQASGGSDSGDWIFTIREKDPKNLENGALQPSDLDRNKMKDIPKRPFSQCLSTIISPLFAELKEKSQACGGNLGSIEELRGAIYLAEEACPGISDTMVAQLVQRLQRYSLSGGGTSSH

SMILES: CN(C(=O)c1cnn2cccnc12)c1cc2c(cc1N1CCOCC1)C(=O)N(C[C@@H](F)C(C)(C)O)C2
- dTM [1]: -0.6 K

SMILES: Cc1cc([C@@H](C)Nc2ccccc2C(=O)O)c2nc(N3CCOCC3)cc(=O)n2c1 [AZD-6482]
- % of control [2]: 86%
- % of control [3]: 94%

SMILES: Cn1cc(-n2cnc3c(NCc4nc5cc(Cl)c(Cl)cc5[nH]4)nc(N4CCOCC4)nc32)cn1
- % of inhibition [4]: -26.6%

SMILES: CC[C@@H]1[C@H](F)C(=O)N[C@@H]1COc1nccc2cc(C(N)=O)c(OC)cc12 [ZIMLOVISERTIB]
- % of inhibition ([5]; at 0.01 µM): -1%
- % of inhibition ([5]; at 0.04 µM): 3.3%
- % of inhibition ([5]; at 0.2 µM): 10%
- % of inhibition ([5]; at 1 µM): 35.2%
- % of inhibition ([5]; at 5 µM): 63%
- % of inhibition [6]: 12.2%

SMILES: COc1cc(Nc2nc(C)cc(-c3cnn4nc(OC)ccc34)n2)cc(C(F)(F)F)c1
- % of control [7]: 72%

SMILES: C=CC(=O)Nc1cc(-n2c(=O)ccc3cnc4ccc(-c5ccc(NS(C)(=O)=O)cc5)cc4c32)ccc1C
- % of control ([8]; at 1 µM): 77%
- % of control ([8]; at 10 µM): 74%

SMILES: O[C@H]1CC[C@H](Nc2ncc3nc(Nc4c(F)cc(F)cc4F)n([C@H]4CCOC4)c3n2)CC1
- % of control [9]: 94%

SMILES: CC(=O)c1cc(-c2ccccc2OCC2CC2)c2ncccn12
- % of control [10]: 105%

SMILES: CN(C)C/C=C/C(=O)Nc1ccc(C(=O)N2CCCC(Nc3ncc(Cl)c(-c4c[nH]c5ccccc45)n3)C2)cc1 (configuration not stated)
- % of control [11]: 94%

SMILES: N#Cc1cccc(-c2c[nH]c3ncnc(N4CCOCC4)c23)c1
- % of control [12]: 1.8%
